Measured values from PubChem BioAssay AID1259338 (Broad Institute, 2017).
Active and inactive are the calls of the source.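 Rule for the calls: active = compounds lowering the signal with a fitted AC50 at or below a set concentration limit; inconclusive = flat curve with 30 to 70% inhibition, or a poor fit; inactive = the rest.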

Target: Caspase recruitment domain-containing protein 9 (Homo sapiens) + E3 ubiquitin-protein ligase TRIM62 (Homo sapiens) (UniProt Q9H257+Q9BVG3)
Assay: CARD9/TRIM62 protein interaction inhibitors – cell lysate, HEK293FT lysates, Luminex bead readout, dose response (AID 1259338); for activity change, negative = inhibition: reference of the scale not given here
Conditions: Luminex bead PPI, MFI; for activity change, negative = inhibition: at 80 µM (top of the series)

Caspase recruitment domain-containing protein 9 (Homo sapiens) + E3 ubiquitin-protein ligase TRIM62 (Homo sapiens), sequence (Q9BVG3 whole entry, looked up, the tested form may be a part): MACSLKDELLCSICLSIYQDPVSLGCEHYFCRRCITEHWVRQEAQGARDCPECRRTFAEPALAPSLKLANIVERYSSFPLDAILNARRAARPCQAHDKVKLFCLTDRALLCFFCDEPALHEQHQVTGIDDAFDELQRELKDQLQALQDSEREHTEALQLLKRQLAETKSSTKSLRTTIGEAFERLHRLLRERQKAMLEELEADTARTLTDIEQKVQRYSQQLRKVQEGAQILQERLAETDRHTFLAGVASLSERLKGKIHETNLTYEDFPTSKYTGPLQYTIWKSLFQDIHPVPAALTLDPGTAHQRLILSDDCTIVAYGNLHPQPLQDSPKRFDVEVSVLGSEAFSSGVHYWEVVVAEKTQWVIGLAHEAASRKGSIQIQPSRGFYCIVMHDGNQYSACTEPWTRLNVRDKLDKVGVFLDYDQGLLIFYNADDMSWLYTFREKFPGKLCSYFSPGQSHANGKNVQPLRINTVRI
Caspase recruitment domain-containing protein 9 (Homo sapiens) + E3 ubiquitin-protein ligase TRIM62 (Homo sapiens), sequence (Q9H257 whole entry, looked up, the tested form may be a part): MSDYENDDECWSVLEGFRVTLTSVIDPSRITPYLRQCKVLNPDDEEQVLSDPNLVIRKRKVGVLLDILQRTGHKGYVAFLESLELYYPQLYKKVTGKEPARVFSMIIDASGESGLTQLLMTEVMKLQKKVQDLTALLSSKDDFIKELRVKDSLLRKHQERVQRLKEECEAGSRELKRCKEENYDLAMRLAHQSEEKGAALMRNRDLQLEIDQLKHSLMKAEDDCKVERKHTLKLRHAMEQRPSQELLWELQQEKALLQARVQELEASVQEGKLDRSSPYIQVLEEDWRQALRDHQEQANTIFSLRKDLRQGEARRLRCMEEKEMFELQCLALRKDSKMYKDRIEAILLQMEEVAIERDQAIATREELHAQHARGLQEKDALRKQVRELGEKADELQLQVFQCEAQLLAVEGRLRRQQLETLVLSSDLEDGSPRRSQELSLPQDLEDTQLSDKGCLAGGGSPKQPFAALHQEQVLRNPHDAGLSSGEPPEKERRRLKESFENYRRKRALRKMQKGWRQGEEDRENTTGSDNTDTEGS

Compound	activity change, negative = inhibition	AC50 [µM]
C[C@H](CO)N1C[C@H](C)[C@@H](CN(C)C(=O)C2CCCCC2)OCCCC[C@H](C)Oc2ccc(NS(C)(=O)=O)cc2C1=O	inactive	
Nc1c2c(nc3ccccc13)CCN(Cc1ccccc1)C2	inactive	
CC(=O)c1cccc(OCC(=O)N(C)CC(=O)NCc2ccco2)c1		82.2
Cc1cncc(-c2ccc(S(N)(=O)=O)cc2F)c1		53.4
